Measurements from patent US20240390369A1, “METHODS FOR DETERMINING RESPONSIVENESS TO TYK2 INHIBITORS” (Bristol-Myers Squibb Company, priority 2021, published 2024).

Tested on: patients with psoriatic arthritis
Experiment: Phase 2 trial in psoriatic arthritis: ACR20 response at week 16
Assay type: in vivo, human
Conditions: for ACR20 response rate over time: placebo, sixteen-week treatment period; for Odds Ratio, ACR20 response status / Odds Ratio for ACR20 response: All patients
Description: In a double-blind Phase 2 trial, 203 patients with psoriatic arthritis were randomized into three groups: deucravacitinib 6 mg once daily (N=70), deucravacitinib 12 mg once daily (N=67), or placebo (N=66). All subjects had active psoriatic arthritis according to the Classification Criteria for Psoriatic Arthritis (CASPAR); for active disease, these criteria required ≥3 tender joint count, ≥3 swollen joint count, and a C-reactive protein level above 3 mg/L. Other inclusion criteria included the following: presence of at least one plaque psoriasis lesion, and prior treatment failure with a non-biologic disease modifying anti-rheumatic drug, a non-steroidal anti-inflammatory drug, or a steroid. With respect to treatment history, approximately 70% of subjects had not received prior treatment with a biologic and were biologic naïve, while up to 30% of subjects had failed or had been intolerant to one TNF-inhibitor (TNF=Tumor necrosis factor, also known as TNFα). Randomization was stratified by prior TNF-inhibitor use (experienced/naïve) and body weight (<90 kg and ≥90 kg).
Clinical measures included the Psoriasis […] (PASI) score for skin psoriasis, American College of Rheumatology 20 (ACR20) response, Psoriatic Arthritis Disease Activity Score (PASDAS), Health Assessment Questionnaire-Disability Index (HAQ-DI), and Disease Activity Score 28 CRP (DAS28). To evaluate the predictive value of different protein measurements for the clinical response to deucravacitinib, baseline protein concentrations for responders and non-responders, as defined by ACR20 or PASI75 at week 16, were compared for each arm (placebo, 6 mg deucravacitinib once-daily, and 12 mg deucravacitinib once-daily).
Boxplots for baseline protein level by response were generated with a horizontal line indicating the median protein level at baseline. For each treatment arm, a two-sample t-test was performed to test whether mean baseline serum protein level was different in responders versus non-responders. A Wilcoxon rank sum test (Mann-Whitney U test) was also performed to evaluate the difference in median serum protein level between responders and non-responders. Further, barplots of ACR20 and PASI75 response rate at week 16 for each treatment arm were generated for all subjects (protein level high and protein level low subjects, dichotomized according to median baseline level). Line plots of ACR20 and PASI75 response rate over time for each treatment arm were generated for protein level high and protein level low groups. Logistic regression models were also fit to evaluate associations between baseline protein levels and clinical outcome.
For certain analyses described herein, patients were dichotomized by median values (e.g., of the proteins listed above or other measures) into “high” and “low” groups, such that the high group had values above the median and the low group had values less than or equal to the median.
In addition, logistic regression models were fit for response measures ACR20 and PASI75, to generate the odds ratio of each of the deucravacitinib treatment arms versus placebo, in BD2-high and BD2-low groups. The following logistic regression models were used: • For ACR20 response status: ACR20 (Y/N)=treatment arm+BD2 group+treatment arm*BD2 group+TNF-inhibitor use+baseline weight (continuous). • For PASI75 response status: PASI75 (Y/N)=treatment arm+BD2 group+treatment arm*BD2 group+TNF-inhibitor use+baseline weight (continuous). […] FIGS. 26-31 are forest plots summarizing the logistic regression results of these models (for BD2 and other biomarkers described herein); each “N,” for “Placebo” and “Deucrava,” represents the number of responders in that group. […]

[1] = 6 mg QD, Above median baseline CRP level
[2] = 6 mg QD, Below median baseline CRP level
[3] = 12 mg QD, Above median baseline CRP level
[4] = 12 mg QD, Below median baseline CRP level

## [2H]C([2H])([2H])NC(=O)c1nnc(NC(=O)C2CC2)cc1Nc1cccc(-c2ncn(C)n2)c1OC [deucravacitinib, 6-(cyclopropanecarboxamido)-4-((2-methoxy-3-(1-methyl-1H-1,2,4-triazol-3-yl)phenyl)amino)-N-(methyl-d3)pyridazine-3-carboxamide]
6 mg QD vs placebo: BD2 high versus BD2 low, week 16
  Interaction Term for ACR20 response (ratio of odds ratios): 3.16
6 mg QD vs placebo: CRP high versus CRP low
  Interaction Term: treatment arm*CRP group, ACR20: 0.786
6 mg QD vs placebo: CRP-high versus CRP-low, adjusted for baseline DAS28
  Interaction Term: treatment arm*CRP group, ACR20: 0.788
6 mg QD vs placebo: IL-17A high versus IL-17A low, week 16
  Interaction Term for ACR20 response (ratio of odds ratios): 3.10
6 mg QD vs placebo: IL-19 high versus IL-19 low, week 16
  Interaction Term for ACR20 response (ratio of odds ratios): 3.33
6 mg QD, 12 mg QD, BD2-high and BD2-low groups (FIG. 10)
  ACR20 response rate over time: higher ACR20 response rates to deucravacitinib over time, compared to the response rate in the placebo arm, were observed in the BD2-high group but not in the BD2-low group
6 mg QD, 12 mg QD, CRP-high and CRP-low groups (FIG. 41)
  ACR20 response rate over time: higher response rates than the placebo arm
6 mg QD, 12 mg QD, IL-17A-high and IL-17A-low groups (FIG. 24)
  ACR20 response rate over time: higher ACR20 response rates over time were observed in the deucravacitinib treatment arms compared to placebo in IL-17A-high but not in IL-17A-low groups
6 mg QD, 12 mg QD, IL-19-high and IL-19-low groups (FIG. 17)
  ACR20 response rate over time: higher ACR20 response rates to deucravacitinib over time compared to placebo were observed in IL-19-high but not in IL-19-low groups
6 mg QD, ACR20 non-responder at week 16, above median baseline BD2 level
  Number of subjects: 20
6 mg QD, ACR20 non-responder at week 16, above median baseline IL-17A level
  Number of subjects: 14
6 mg QD, ACR20 non-responder at week 16, above median baseline IL-19 level
  Number of subjects: 17
6 mg QD, ACR20 non-responder at week 16, below median baseline BD2 level
  Number of subjects: 14
6 mg QD, ACR20 non-responder at week 16, below median baseline IL-17A level
  Number of subjects: 19
6 mg QD, ACR20 non-responder at week 16, below median baseline IL-19 level
  Number of subjects: 16
6 mg QD, ACR20 responder at week 16, above median baseline IL-17A level
  Number of subjects: 21
6 mg QD, ACR20 responder at week 16, above median baseline IL-19 level
  Number of subjects: 21
6 mg QD, ACR20 responder at week 16, below median baseline BD2 level
  Number of subjects: 7
6 mg QD, ACR20 responder at week 16, below median baseline IL-17A level
  Number of subjects: 16
6 mg QD, ACR20 responder at week 16, below median baseline IL-19 level
  Number of subjects: 16
[1]
  Number of subjects, ACR20 Non-responder at week 16: 17
  Number of subjects, ACR20 Responder at week 16: 19
[2]
  Number of subjects, ACR20 Non-responder at week 16: 16
  Number of subjects, ACR20 Responder at week 16: 18
12 mg QD vs placebo: BD2 high versus BD2 low, week 16
  Interaction Term for ACR20 response (ratio of odds ratios): 3.40
12 mg QD vs placebo: CRP high versus CRP low
  Interaction Term: treatment arm*CRP group, ACR20: 1.921
12 mg QD vs placebo: CRP-high versus CRP-low, adjusted for baseline DAS28
  Interaction Term: treatment arm*CRP group, ACR20: 1.930
12 mg QD vs placebo: IL-17A high versus IL-17A low, week 16
  Interaction Term for ACR20 response (ratio of odds ratios): 2.78
12 mg QD vs placebo: IL-19 high versus IL-19 low, week 16
  Interaction Term for ACR20 response (ratio of odds ratios): 7.35
12 mg QD, ACR20 non-responder at week 16, above median baseline BD2 level
  Number of subjects: 10
12 mg QD, ACR20 non-responder at week 16, above median baseline IL-19 level
  Number of subjects: 7
12 mg QD, ACR20 non-responder at week 16, below median baseline BD2 level
  Number of subjects: 11
12 mg QD, ACR20 non-responder at week 16, below median baseline IL-17A level
  Number of subjects: 15
12 mg QD, ACR20 non-responder at week 16, below median baseline IL-19 level
  Number of subjects: 17
12 mg QD, ACR20 responder at week 16, above median baseline BD2 level
  Number of subjects: 20
12 mg QD, ACR20 responder at week 16, above median baseline IL-19 level
  Number of subjects: 21
12 mg QD, ACR20 responder at week 16, below median baseline BD2 level
  Number of subjects: 10
12 mg QD, ACR20 responder at week 16, below median baseline IL-19 level
  Number of subjects: 20
[3]
  Number of subjects, ACR20 Non-responder at week 16: 9
  Number of subjects, ACR20 Responder at week 16: 24
[4]
  Number of subjects, ACR20 Non-responder at week 16: 16
  Number of subjects, ACR20 Responder at week 16: 18
6 mg QD vs placebo, not adjusted for baseline disease activity
  Odds Ratio, ACR20 response status: 2.456
6 mg QD vs placebo, week 16
  Odds Ratio for ACR20 response: 2.46
6 mg QD vs placebo, week 16, adjusted for baseline DAS28
  Odds Ratio, ACR20 response status: 2.443
12 mg QD vs placebo, not adjusted for baseline disease activity
  Odds Ratio, ACR20 response status: 3.609
12 mg QD vs placebo, week 16
  Odds Ratio for ACR20 response: 3.61
12 mg QD vs placebo, week 16, adjusted for baseline DAS28
  Odds Ratio, ACR20 response status: 3.618
Deucravacitinib treatment arms combined vs placebo, week 16
  Odds Ratio for ACR20 response: 2.961
Treatment arms combined vs placebo
  Odds Ratio, ACR20 response status: 2.961
